The text below walks through data of patent US10780090B2, “Heteroaryl compounds useful as inhibitors of SUMO activating enzyme” (Millennium Pharmaceuticals, Inc., priority 2014, dated 2020).

The target in this assay is recombinant human SAE enzyme (Homo sapiens (Human), UniProt Q9UBT2). The experiment in a line: SAE HTRF enzyme assay. It is filed as biochemical. The settings on record: for Percent Inhibition: SAE inhibition at compound concentration 0.111 μM. Put shortly: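 0.11 nM SAE incubated with 0.5 μM ATP, 0.01 μM Ubc9-GST and 0.125 μM Sumo-Flag in HEPES pH 7.5, MgCl2, GSH, BSA, ±inhibitor, 105 min at 24° C. EDTA stop; Eu-cryptate anti-Flag/XL-APC anti-GST HTRF read after 2 h. Values given as single-concentration % inhibition or IC50.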
A general note: Time-resolved FRET reads energy transfer from a long-lived donor to a nearby acceptor.

[1] abbreviates: SAE inhibition, class symbols, legend in nM.

Sequence of recombinant human SAE enzyme (Q9UBT2 whole entry): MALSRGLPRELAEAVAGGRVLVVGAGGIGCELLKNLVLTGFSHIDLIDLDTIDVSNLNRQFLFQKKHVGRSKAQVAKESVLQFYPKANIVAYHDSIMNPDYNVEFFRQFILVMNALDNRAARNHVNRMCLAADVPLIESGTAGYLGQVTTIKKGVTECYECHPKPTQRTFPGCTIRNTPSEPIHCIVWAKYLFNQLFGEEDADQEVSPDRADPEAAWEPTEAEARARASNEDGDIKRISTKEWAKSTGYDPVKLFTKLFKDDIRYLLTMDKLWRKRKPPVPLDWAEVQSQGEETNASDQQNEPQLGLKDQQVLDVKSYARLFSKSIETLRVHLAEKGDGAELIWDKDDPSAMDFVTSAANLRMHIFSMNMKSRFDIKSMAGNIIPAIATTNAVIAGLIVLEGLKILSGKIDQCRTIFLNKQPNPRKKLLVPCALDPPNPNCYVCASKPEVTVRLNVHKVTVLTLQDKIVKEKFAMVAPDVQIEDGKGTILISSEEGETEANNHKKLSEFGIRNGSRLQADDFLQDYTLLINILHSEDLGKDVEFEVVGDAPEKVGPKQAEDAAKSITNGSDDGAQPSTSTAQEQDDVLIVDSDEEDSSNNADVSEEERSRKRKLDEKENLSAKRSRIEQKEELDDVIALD
Sequence of recombinant human SAE enzyme (Q9UBE0 whole entry partner): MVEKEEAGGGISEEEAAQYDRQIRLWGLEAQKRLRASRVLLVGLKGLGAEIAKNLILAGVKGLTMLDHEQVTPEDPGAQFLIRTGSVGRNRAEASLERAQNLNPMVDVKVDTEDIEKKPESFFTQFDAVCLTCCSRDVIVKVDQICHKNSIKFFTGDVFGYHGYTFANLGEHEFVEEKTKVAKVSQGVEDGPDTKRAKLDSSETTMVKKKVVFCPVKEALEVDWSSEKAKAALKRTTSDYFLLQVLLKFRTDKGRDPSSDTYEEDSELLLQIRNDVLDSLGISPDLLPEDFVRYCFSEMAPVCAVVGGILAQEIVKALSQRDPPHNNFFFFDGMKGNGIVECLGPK

What is called IC50 is the concentration needed to halve the response being measured. With `COc1ccc2c(n1)[C@H](c1cc(C(=O)c3cncnc3N[C@@H]3C[C@H](COS(N)(=O)=O)[C@@H](O)C3)sc1C)OCC2` (single isomer, unassigned) [I-339b, [(1R,2S,4R)-2-hydroxy-4-{[5-({4-[(8S)-2-methoxy-5,8-dihydro-6H-pyrano[3,4-b]pyridin-8-yl]-5-methyl-2-thienyl}carbonyl)pyrimidin-4-yl]amino}cyclopentyl]methyl sulfamate or [(1R,2S,4R)-2-hydroxy-4-{[5-({4-[(8R)-2-methoxy-5,8-dihydro-6H-pyrano[3,4-b]pyridin-8-yl]-5-methyl-2-thienyl}carbonyl)pyrimidin-4-yl]amino}cyclopentyl]methyl sulfamate], the “Percent Inhibition” value was 94%. The IC50 under setting [1] is under 10 nM.

For the compound `NS(=O)(=O)OC[C@H]1C[C@@H](Nc2ncncc2C(=O)c2ccc([C@@H]3OCCCc4ccc(Cl)cc43)s2)C[C@@H]1O` (single isomer, unassigned) [I-343a, [(1R,2S,4R)-4-{[5-({5-[(1R)-8-chloro-1,3,4,5-tetrahydro-2-benzoxepin-1-yl]-2-thienyl}carbonyl)pyrimidin-4-yl]amino}-2-hydroxycyclopentyl]methyl sulfamate or [(1R,2S,4R)-4-{[5-({5-[(1S)-8-chloro-1,3,4,5-tetrahydro-2-benzoxepin-1-yl]-2-thienyl}carbonyl)pyrimidin-4-yl]amino}-2-hydroxycyclopentyl]methyl sulfamate], the “Percent Inhibition” value is given as 57%. Further, under setting [1], the IC50 fell in the range of 10 to 100 nM.

For the compound `NS(=O)(=O)OC[C@H]1C[C@@H](Nc2ncncc2C(=O)c2ccc([C@@H]3OCCCc4ccc(Cl)cc43)s2)C[C@@H]1O` (single isomer, unassigned) [I-343b, [(1R,2S,4R)-4-{[5-({5-[(1R)-8-chloro-1,3,4,5-tetrahydro-2-benzoxepin-1-yl]-2-thienyl}carbonyl)pyrimidin-4-yl]amino}-2-hydroxycyclopentyl]methyl sulfamate or [(1R,2S,4R)-4-{[5-({5-[(1S)-8-chloro-1,3,4,5-tetrahydro-2-benzoxepin-1-yl]-2-thienyl}carbonyl)pyrimidin-4-yl]amino}-2-hydroxycyclopentyl]methyl sulfamate], the “Percent Inhibition” value stood at 84%. For the same compound, the concentration for half-maximal inhibition (IC50) under setting [1] fell in the range of 10 to 100 nM.

For `NS(=O)(=O)OC[C@H]1C[C@@H](Nc2ncncc2C(=O)c2cc([C@@H]3CCc4ccc(Cl)cc43)cs2)C[C@@H]1O` (single isomer, unassigned) [I-349a, [(1R,2S,4R)-4-{[5-({4-[(1R)-6-chloro-2,3-dihydro-1H-inden-1-yl]-2-thienyl}carbonyl)pyrimidin-4-yl]amino}-2-hydroxycyclopentyl]methyl sulfamate or [(1R,2S,4R)-4-{[5-({4-[(1S)-6-chloro-2,3-dihydro-1H-inden-1-yl]-2-thienyl}carbonyl)pyrimidin-4-yl]amino}-2-hydroxycyclopentyl]methyl sulfamate], the “Percent Inhibition” value is given as 42%. The IC50 under setting [1] fell in the range of 100 to 1000 nM.

Regarding `NS(=O)(=O)OC[C@H]1C[C@@H](Nc2ncncc2C(=O)c2cc([C@@H]3CCc4ccc(Cl)cc43)cs2)C[C@@H]1O` (single isomer, unassigned) [I-349b, [(1R,2S,4R)-4-{[5-({4-[(1R)-6-chloro-2,3-dihydro-1H-inden-1-yl]-2-thienyl}carbonyl)pyrimidin-4-yl]amino}-2-hydroxycyclopentyl]methyl sulfamate or [(1R,2S,4R)-4-{[5-({4-[(1S)-6-chloro-2,3-dihydro-1H-inden-1-yl]-2-thienyl}carbonyl)pyrimidin-4-yl]amino}-2-hydroxycyclopentyl]methyl sulfamate], the “Percent Inhibition” value is 58%. Further, under setting [1], the half-maximal inhibitory concentration (IC50) fell in the range of 10 to 100 nM.

Regarding `Cc1sc(C(=O)c2cncnc2N[C@@H]2C[C@H](COS(N)(=O)=O)[C@@H](O)C2)nc1[C@H](O)c1cccc(Cl)c1` (single isomer, unassigned) [I-355a, [(1R,2S,4R)-4-{[5-({4-[(R)-(3-chlorophenyl)(hydroxy)methyl]-5-methyl-1,3-thiazol-2-yl}carbonyl)pyrimidin-4-yl]amino}-2-hydroxycyclopentyl]methyl sulfamate or [(1R,2S,4R)-4-{[5-({4-[(S)-(3-chlorophenyl)(hydroxy)methyl]-5-methyl-1,3-thiazol-2-yl}carbonyl)pyrimidin-4-yl]amino}-2-hydroxycyclopentyl]methyl sulfamate], the “Percent Inhibition” value is recorded as 98%. Besides, the IC50 under setting [1] is under 10 nM.

For `Cc1sc(C(=O)c2cncnc2N[C@@H]2C[C@H](COS(N)(=O)=O)[C@@H](O)C2)nc1[C@H](O)c1cccc(Cl)c1` (single isomer, unassigned) [I-355b, [(1R,2S,4R)-4-{[5-({4-[(R)-(3-chlorophenyl)(hydroxy)methyl]-5-methyl-1,3-thiazol-2-yl}carbonyl)pyrimidin-4-yl]amino}-2-hydroxycyclopentyl]methyl sulfamate or [(1R,2S,4R)-4-{[5-({4-[(S)-(3-chlorophenyl)(hydroxy)methyl]-5-methyl-1,3-thiazol-2-yl}carbonyl)pyrimidin-4-yl]amino}-2-hydroxycyclopentyl]methyl sulfamate], the “Percent Inhibition” value amounted to 71%. The 50% inhibitory concentration (IC50) under setting [1] was in the range of 10 to 100 nM.

Take `Cc1nc2n(c1C)CCO[C@@H]2c1cc(C(=O)c2cncnc2N[C@@H]2C[C@H](COS(N)(=O)=O)[C@@H](O)C2)sc1C` (single isomer, unassigned) [I-356a, [(1R,2S,4R)-4-{[5-({4-[(8R)-2,3-dimethyl-5,6-dihydro-8H-imidazo[2,1-c][1,4]oxazin-8-yl]-5-methyl-2-thienyl}carbonyl)pyrimidin-4-yl]amino}-2-hydroxycyclopentyl]methyl sulfamate or [(1R,2S,4R)-4-{[5-({4-[(8S)-2,3-dimethyl-5,6-dihydro-8H-imidazo[2,1-c][1,4]oxazin-8-yl]-5-methyl-2-thienyl}carbonyl)pyrimidin-4-yl]amino}-2-hydroxycyclopentyl]methyl sulfamate]: the “Percent Inhibition” value was 52%. For the same compound, under setting [1], the concentration for half-maximal inhibition (IC50) fell in the range of 10 to 100 nM.

Regarding `Cc1nc2n(c1C)CCO[C@@H]2c1cc(C(=O)c2cncnc2N[C@@H]2C[C@H](COS(N)(=O)=O)[C@@H](O)C2)sc1C` (single isomer, unassigned) [I-356b, [(1R,2S,4R)-4-{[5-({4-[(8R)-2,3-dimethyl-5,6-dihydro-8H-imidazo[2,1-c][1,4]oxazin-8-yl]-5-methyl-2-thienyl}carbonyl)pyrimidin-4-yl]amino}-2-hydroxycyclopentyl]methyl sulfamate or [(1R,2S,4R)-4-{[5-({4-[(8S)-2,3-dimethyl-5,6-dihydro-8H-imidazo[2,1-c][1,4]oxazin-8-yl]-5-methyl-2-thienyl}carbonyl)pyrimidin-4-yl]amino}-2-hydroxycyclopentyl]methyl sulfamate], the “Percent Inhibition” value is listed as 99%. The IC50 under setting [1] was under 10 nM.

Usually inhibition stands for the share of the control response that was lost under treatment. Consider `NS(=O)(=O)OC[C@H]1C[C@@H](Nc2ncncc2C(=O)c2cc(Cc3cccc(Br)c3)cs2)[C@H](O)[C@@H]1O` [I-26, {(1R,2R,3S,4R)-4-[(5-{[4-(3-Bromobenzyl)-2-thienyl]carbonyl}pyrimidin-4-yl)amino]-2,3-dihydroxycyclopentyl}methyl sulfamate], for which the inhibition at 0.111 µM (Concentration 0.111 μM, read-out: Percent Inhibition) was determined as 100%. Further, the 50% inhibitory concentration (IC50) (class symbols A/B/C) is under 10 nM.
